Key:
[1] = test system: spontaneously hypertensive rats (SHR); assay: ANF potentiation procedure (antihypertensive effect in combination with ANF); type: in vivo; details: drop in blood pressure; 30 mg/kg sc
Experimental: The antihypertensive effect of mercaptoacylamino acid disulfide derivatives in combination with ANF can be determined according to the following procedures:
Male spontaneously hypertensive rats (SHR), 16-18 weeks old, 270-350 g, are anesthetized with ether and the abdominal aorta is cannulated through the tail artery. The animals are then placed into restrainers to recover from anesthesia (in less than 10 min.) and remain inside throughout the experiments. Through a pressure transducer (Gould P23 series) analog blood pressure signals are registered on a Beckman 612 recorder. A Buxco digital computer is used to obtain mean arterial pressures. Patency of the arterial cannula is maintained with a continuous infusion of 5% dextrose at 0.2 ml/hr. Animals are allowed a 90-min equilibration period. The animals first undergo a challenge with an ANF such as atriopeptin II (AP II) or AP28 30 »g/kg iv and at the end of 60 min. are treated with drug vehicle or a mercapto-acylamino acid subcutaneously. A second ANF challenge is administered 15 min. later and blood pressure is monitored for the next 90 min.

[2] = test system: DOCA salt hypertension in the rat; assay: DOCA salt hypertension model (antihypertensive effect); type: in vivo, Sprague Dawley rats; details: drop in blood pressure

Row | Compound | ANF Potentiation ΔBP (mmHg) [1] [mmHg] | DOCA Salt ΔBP (mmHg) ([2]; 1 mg/kg po) | DOCA Salt ΔBP (mmHg) ([2]; 10 mg/kg po) | DOCA Salt ΔBP (mmHg) ([2]; 0.1 mg/kg po) | DOCA Salt ΔBP (mmHg) ([2]; 3 mg/kg po)
1 | CSCC[C@H](NC(=O)[C@@H](CSSC[C@@H](Cc1ccccc1C)C(=O)N[C@@H](CCSC)C(=O)O)Cc1ccccc1C)C(=O)O [Example 2, 1,1'-[DITHIOBIS-[2(S)-(2-METHYLBENZYL)-1-OXO-3,1-PROPANEDIYL]]BIS-(S)-METHIONINE] | 27 | 41 | 57 |  | 
2 | Cc1ccccc1C[C@H](CSSC[C@@H](Cc1ccccc1C)C(=O)NC[C@H](O)C(=O)O)C(=O)NC[C@H](O)C(=O)O [Example 4, 1,1'-[DITHIOBIS-[2(S)-(2-METHYLBENZYL)-1-OXO-3,1-PROPANEDIYL]]BIS-(S)-ISOSERINE] | 24 | 21 | 31 | 0 | 
3 | CCOC(=O)[C@H](CCSC)NC(=O)[C@@H](CSSC[C@@H](Cc1ccccc1C)C(=O)N[C@@H](CCSC)C(=O)OCC)Cc1ccccc1C [Example 1, 1,1'-[DITHIOBIS-[2(S)-(2-METHYLBENZYL)-1-OXO-3,1-PROPANEDIYL]]BIS-(S)-METHIONINE DIETHYL ESTER] | 0 |  |  |  | 15
4 | CCOC(=O)[C@@H](O)CNC(=O)[C@@H](CSSC[C@@H](Cc1ccccc1C)C(=O)NC[C@H](O)C(=O)OCC)Cc1ccccc1C [Example 3, 1,1'-[DITHIOBIS-[2(S)-(2-METHYLBENZYL)-1-OXO-3,1-PROPANEDIYL]]BIS-(S)-ISOSERINE DIETHYL ESTER] | 29 | 30 | 44 | 31 | 

From patent EP0528997B1, “DISULFIDE DERIVATIVES OF MERCAPTOACYLAMINO ACIDS” (SCHERING CORPORATION, priority 1990, dated 1991)
